In ChEMBL document CHEMBL1140251, “Rhodanine derivatives as inhibitors of JSP-1” (Bioorg Med Chem Lett, 2005):
pIC50: −log10 of the molar value.

Experiments:
[1] = target: T1, Dual specificity protein phosphatase 22 (Homo sapiens, UniProt Q9NRW4); assay: Inhibition of JNK-stimulating phosphatase-1 (JSP-1)
T1 sequence (Q9NRW4 whole entry): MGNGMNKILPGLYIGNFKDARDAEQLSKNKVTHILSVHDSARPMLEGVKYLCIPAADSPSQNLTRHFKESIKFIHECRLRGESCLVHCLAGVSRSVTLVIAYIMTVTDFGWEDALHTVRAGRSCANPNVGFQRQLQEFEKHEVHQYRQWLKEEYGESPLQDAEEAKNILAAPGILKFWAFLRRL

[2] = target: Dual specificity protein phosphatase 3 (Homo sapiens, UniProt P51452); assay: In vitro inhibitory concentration against VH1-related (VHR) phosphatase
Sequence of Dual specificity protein phosphatase 3 (P51452 whole entry): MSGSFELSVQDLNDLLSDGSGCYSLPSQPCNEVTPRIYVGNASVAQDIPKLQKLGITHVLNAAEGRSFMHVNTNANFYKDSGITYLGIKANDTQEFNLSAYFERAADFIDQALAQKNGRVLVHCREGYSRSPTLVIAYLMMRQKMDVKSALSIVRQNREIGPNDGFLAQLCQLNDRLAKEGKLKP

O=C(O)c1ccccc1N1C(=O)/C(=C/c2ccccc2)SC1=S
pIC50 [1]: < 3.70 | pIC50 [2]: < 3.70

O=C1/C(=C/c2ccccc2)SC(=S)N1c1ccccc1
pIC50 [1]: < 3.70

O=C(O)c1ccc(/C=C2\SC(=S)N(c3cccc(C(=O)O)c3)C2=O)cc1
pIC50 [1]: < 3.70 | pIC50 [2]: < 3.70

Cc1cc(C(=O)O)ccc1N1C(=O)/C(=C/c2ccccc2)SC1=S
pIC50 [1]: 4.18 | pIC50 [2]: < 3.70

O=C(O)c1cccc(N2C(=O)/C(=C/c3ccccc3)SC2=S)c1 (stereo in doubt; 5m)
pIC50 [1]: 5.18 | pIC50 [2]: < 4.00

CN1C(=S)N(c2ccc(C(=O)O)cc2)C(=O)/C1=C/c1ccc(F)cc1
pIC50 [1]: < 3.70

Cc1ccc(/C=C2\SC(=S)N(c3cccc(C(=O)O)c3)C2=O)cc1
pIC50 [1]: 4.80 | pIC50 [2]: 3.91

O=C(O)c1ccc(N2C(=O)/C(=C/c3ccc(F)cc3)SC2=S)cc1
pIC50 [1]: 5.38

O=C(O)Cc1ccc(N2C(=O)/C(=C/c3ccccc3)SC2=S)cc1
pIC50 [1]: 4.70 | pIC50 [2]: 4.00

O=C(O)c1cc(N2C(=O)/C(=C/c3ccccc3)SC2=S)ccc1O
pIC50 [1]: 4.89 | pIC50 [2]: 3.89

O=C(O)c1cccc(N2C(=O)/C(=C/c3ccc([N+](=O)[O-])cc3)SC2=S)c1
pIC50 [1]: 5.59 | pIC50 [2]: < 4.30

O=C1/C(=C/c2ccccc2)SC(=S)N1c1ccc(CP(=O)(O)O)cc1
pIC50 [1]: 5.00 | pIC50 [2]: < 3.70

O=C(O)c1cccc(N2C(=O)/C(=C/c3ccc(F)cc3)SC2=S)c1
pIC50 [1]: 5.89 | pIC50 [2]: < 4.30

O=C(O)Cc1cccc(N2C(=O)/C(=C/c3ccccc3)SC2=S)c1
pIC50 [1]: 4.70 | pIC50 [2]: < 3.70

O=C(O)c1cc(C(=O)O)cc(N2C(=O)/C(=C/c3ccccc3)SC2=S)c1
pIC50 [1]: 3.99 | pIC50 [2]: < 3.70

O=C(O)c1ccc(N2C(=O)/C(=C/c3ccccc3)SC2=S)cc1O
pIC50 [1]: 4.89 | pIC50 [2]: 4.35

O=C(O)c1cccc(N2C(=O)/C(=C/c3ccccc3)SC2=S)c1 (stereo in doubt; 5t)
pIC50 [1]: 5.15 | pIC50 [2]: < 4.00

O=C(O)c1ccc(CN2C(=O)/C(=C/c3ccccc3)SC2=S)cc1
pIC50 [1]: 4.22 | pIC50 [2]: < 3.70

O=C(O)c1ccc(N2C(=O)/C(=C/c3ccc(F)cc3)NC2=S)cc1
pIC50 [1]: < 3.70

O=C(O)c1ccc(N2C(=O)S/C(=C\c3ccc(F)cc3)C2=O)cc1
pIC50 [1]: < 3.70

O=C1/C(=C/c2ccccc2)SC(=S)N1c1ccc(S(=O)(=O)O)cc1
pIC50 [1]: 4.96 | pIC50 [2]: < 3.70

CC/C=C1\SC(=S)N(c2cccc(C(=O)O)c2)C1=O
pIC50 [1]: 4.23 | pIC50 [2]: < 3.70

O=C(O)c1ccc(N2C(=O)/C(=C/c3ccccc3)SC2=S)cc1
pIC50 [1]: 4.74 | pIC50 [2]: < 3.70

O=C(O)c1ccc(N2C(=O)/C(=C/c3ccc(F)cc3)OC2=S)cc1
pIC50 [1]: < 3.70

O=C(O)c1cccc(N2C(=O)/C(=C/C3CCCCC3)SC2=S)c1
pIC50 [1]: 5.14 | pIC50 [2]: < 3.70

COC(=O)c1ccc(N2C(=O)/C(=C/c3ccccc3)SC2=S)cc1
pIC50 [1]: < 3.70

COc1ccc(/C=C2\SC(=S)N(c3cccc(C(=O)O)c3)C2=O)cc1
pIC50 [1]: 4.59 | pIC50 [2]: < 3.70

O=C(O)c1cccc(N2C(=O)/C(=C/c3ccc(O)cc3)SC2=S)c1
pIC50 [1]: 3.80 | pIC50 [2]: < 3.70
